{"source": "patent EP0345153A1", "about": "“Affinity markers for hormonal steroid receptors, their use in hormonoradio therapy and as imaging agents of hormone-dependent cancers” (LA REGION WALLONNE, priority 1988, dated 1989)", "key": {"[1]": {"system": "récepteur de l'oestradiol", "conditions": "cited from earlier work"}, "[2]": {"target": "T1, Récepteur des glucocorticoîdes (Homo sapiens, UniProt P04150)", "T1 sequence (P04150 1-777)": "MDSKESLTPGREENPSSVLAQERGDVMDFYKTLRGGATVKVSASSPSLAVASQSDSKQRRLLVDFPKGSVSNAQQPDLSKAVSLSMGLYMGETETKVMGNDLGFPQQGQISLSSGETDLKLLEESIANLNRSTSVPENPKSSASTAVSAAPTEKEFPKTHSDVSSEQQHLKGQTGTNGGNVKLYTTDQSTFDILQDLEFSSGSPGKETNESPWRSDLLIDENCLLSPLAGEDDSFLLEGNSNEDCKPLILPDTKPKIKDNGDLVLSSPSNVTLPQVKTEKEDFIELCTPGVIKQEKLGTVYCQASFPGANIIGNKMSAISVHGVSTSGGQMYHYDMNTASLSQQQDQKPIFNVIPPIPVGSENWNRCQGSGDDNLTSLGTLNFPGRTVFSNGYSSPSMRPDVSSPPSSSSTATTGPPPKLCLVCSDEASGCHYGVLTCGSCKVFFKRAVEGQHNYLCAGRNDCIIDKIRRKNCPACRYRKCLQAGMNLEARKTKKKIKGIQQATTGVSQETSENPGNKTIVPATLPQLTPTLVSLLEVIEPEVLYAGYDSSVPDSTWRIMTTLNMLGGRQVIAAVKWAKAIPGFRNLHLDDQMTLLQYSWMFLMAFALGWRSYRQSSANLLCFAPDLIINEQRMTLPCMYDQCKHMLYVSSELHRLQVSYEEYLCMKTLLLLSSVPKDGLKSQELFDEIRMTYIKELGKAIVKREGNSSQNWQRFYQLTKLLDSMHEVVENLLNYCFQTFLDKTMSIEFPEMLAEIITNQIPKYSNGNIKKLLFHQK", "conditions": "whole cells; cited from earlier work"}, "[3]": {"target": "T2, Récepteur de la progestérone (Homo sapiens, UniProt P06401)", "T2 sequence (P06401 1-933)": "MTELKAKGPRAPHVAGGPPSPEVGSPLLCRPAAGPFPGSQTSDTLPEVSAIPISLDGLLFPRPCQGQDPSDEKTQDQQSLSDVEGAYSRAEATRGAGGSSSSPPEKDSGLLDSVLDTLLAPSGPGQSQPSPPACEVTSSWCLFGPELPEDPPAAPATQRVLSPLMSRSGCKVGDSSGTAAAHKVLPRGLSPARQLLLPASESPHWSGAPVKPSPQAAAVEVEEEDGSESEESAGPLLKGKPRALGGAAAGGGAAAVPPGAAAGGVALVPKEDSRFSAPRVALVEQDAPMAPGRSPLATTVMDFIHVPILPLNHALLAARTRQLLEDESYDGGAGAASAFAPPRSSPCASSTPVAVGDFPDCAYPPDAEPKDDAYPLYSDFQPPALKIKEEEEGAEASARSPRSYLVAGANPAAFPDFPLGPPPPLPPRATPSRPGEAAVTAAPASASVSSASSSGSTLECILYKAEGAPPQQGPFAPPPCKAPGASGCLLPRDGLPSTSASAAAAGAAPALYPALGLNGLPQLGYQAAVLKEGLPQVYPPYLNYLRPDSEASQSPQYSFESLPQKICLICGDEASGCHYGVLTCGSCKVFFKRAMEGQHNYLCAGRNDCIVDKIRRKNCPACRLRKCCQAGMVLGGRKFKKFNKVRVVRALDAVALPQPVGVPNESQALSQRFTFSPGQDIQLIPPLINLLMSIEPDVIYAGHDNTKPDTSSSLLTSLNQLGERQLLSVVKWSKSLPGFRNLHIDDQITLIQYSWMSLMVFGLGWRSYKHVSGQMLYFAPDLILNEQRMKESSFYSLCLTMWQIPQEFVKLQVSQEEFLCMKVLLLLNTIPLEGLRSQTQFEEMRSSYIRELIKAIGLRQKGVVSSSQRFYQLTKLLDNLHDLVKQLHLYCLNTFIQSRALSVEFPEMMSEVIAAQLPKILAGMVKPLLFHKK", "conditions": "photochemically activated, after 1H; cited from earlier work"}, "[4]": {"system": "récepteur de l'oestradiol", "test": "Relative binding affinity (A.R.L) for the estradiol receptor", "conditions": "vis-à-vis du récepteur de l'oestradiol", "from_the_text": "Dans cette optique, des composés tels que 7 et 8 sont préparés (9b). Ils portent des petits clusters en 17a-et couvrent une gamme de valeurs de PKR+ de -6 pour 7 à +3 pour 8."}, "[5]": {"target": "T3, récepteurs nucléaires de l'oestradiol d'utérus de brebis (Ovis aries, UniProt A0ACI6Q0N8)", "T3 sequence (A0ACI6Q0N8 1-596)": "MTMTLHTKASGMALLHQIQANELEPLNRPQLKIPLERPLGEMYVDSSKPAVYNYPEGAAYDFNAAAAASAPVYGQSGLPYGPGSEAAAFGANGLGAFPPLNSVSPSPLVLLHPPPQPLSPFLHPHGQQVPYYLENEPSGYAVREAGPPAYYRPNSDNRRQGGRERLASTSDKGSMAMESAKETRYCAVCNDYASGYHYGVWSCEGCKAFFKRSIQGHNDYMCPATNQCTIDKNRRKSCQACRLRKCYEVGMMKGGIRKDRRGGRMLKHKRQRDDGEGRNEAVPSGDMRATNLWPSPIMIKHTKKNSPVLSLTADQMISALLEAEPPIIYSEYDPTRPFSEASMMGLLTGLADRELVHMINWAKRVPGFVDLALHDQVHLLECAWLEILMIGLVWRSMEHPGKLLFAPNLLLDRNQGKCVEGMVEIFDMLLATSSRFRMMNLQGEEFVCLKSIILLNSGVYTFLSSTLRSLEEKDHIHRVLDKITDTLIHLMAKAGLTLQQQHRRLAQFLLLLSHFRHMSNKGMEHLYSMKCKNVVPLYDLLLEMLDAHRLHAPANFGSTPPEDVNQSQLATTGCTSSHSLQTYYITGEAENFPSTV", "test": "Irreversible binding to nuclear estradiol receptors in ewe uterus nuclear extract (exchange with 10 nM tritiated estradiol, protamine sulfate precipitation)", "experimental": "La nature irréversible de l'intéraction du composé 12 avec le récepteur a été démontrée en incubant un extrait nucléaire d'utérus de brebis en présence de molarités variables de complexe 12. A la fin du temps . d'incubation, l'hormone libre, présente dans le milieu, est éliminée par traitement au charbon dextran. Les fractions d'extrait nucléaire sont ensuite incubées à 20°C pendant 17 h. en présence de 10 nM d'oestradiol tritié. La fraction d'oestradiol tritiée liée (qui représente la quantité de récepteur qui n'a pas été marquée de façon covalente) est déterminée après précipitation des fractions liées au sulfate de protamine (9b). Les résultats sont rassemblés dans le tableau suivant"}}}
{"molecule": "C[C@]12C[C@H](CCl)[C@@H]3c4ccc(O)cc4CC[C@H]3[C@@H]1CC[C@@H]2O", "note": "[compound 6, chlorométhyl 11β-oestradiol]", "values": [{"measurement": "marqueur d'affinité du récepteur de l'oestradiol", "setting": "[1]", "value": "n'en étant pas un"}]}
{"molecule": "azide de l'hexestrol [compound 3]", "values": [{"measurement": "efficacité d'inactivation", "setting": "[1]; photochemical route", "value": "10-15%"}]}
{"molecule": "Dexaméthasone-mésylate-21 [compound 2]", "values": [{"measurement": "liaison non-spécifique", "setting": "[2]", "value": "Taux élevé de liaison non-spécifique"}]}
{"molecule": "CCC(=O)[C@@]1(C)CC[C@H]2[C@@H]3CCC4=CC(=O)CCC4=C3CC[C@@]21C", "note": "[compound 1, R5020]", "values": [{"measurement": "Marquage", "setting": "[3]", "value": 15, "unit": "%"}]}
{"molecule": "C[C@]12CC[C@@H]3c4ccc(O)cc4CC[C@H]3[C@@H]1CC[C@@]2(O)c1ccccc1", "note": "[[17α-C6H5]-17β-oestradiol]", "values": [{"measurement": "affinité relative de liaison (A.R.L)", "setting": "[4]", "value": 25, "unit": "%"}]}
{"molecule": "CC12CCC3c4ccc(O)cc4CCC3C1CCC2(O)[c-]1cccc1.[Fe+2].c1cc[cH-]c1", "note": "(stereo not drawn) [compound 12, 17α-Ferrocényl-17β-oestradiol]", "values": [{"measurement": "affinité relative de liaison (A.R.L)", "setting": "[4]", "value": 13, "unit": "%"}, {"measurement": "% d'inhibition de la liaison de l'oestradiol", "setting": "[5]; incubation molarity 2 nM", "value": 50, "unit": "%"}, {"measurement": "% d'inhibition de la liaison de l'oestradiol", "setting": "[5]; incubation molarity 5 nM", "value": 71, "unit": "%"}, {"measurement": "% d'inhibition de la liaison de l'oestradiol", "setting": "[5]; incubation molarity 10 nM", "value": 81, "unit": "%"}]}
